According to publication PMC12910667, “Investigating the Landscape of C6-Azaindole Side Chain on the Epoxymorphinan Skeleton via the Nitrogen Walk Concept: A Strategy to Enhance Drug-Like Properties” (Journal of Medicinal Chemistry, 2026):

What was measured:
KOR = target: T1, KOR (Mus musculus, UniProt P33534); experiment: competitive radioligand binding assay, KOR; conditions: CHO cell membranes; mean ± SEM (n ≥ 3)
T1 construct: expressed in transfected cells; host or cells: CHO cells (provided by Dr. Selley, Virginia Commonwealth University)

MOR = target: T2, MOR (Mus musculus, UniProt P42866); experiment: [35S]-GTPγS functional assay at MOR; format: biochemical; conditions: relative to 3 μM DAMGO; mean ± SEM (n ≥ 3)
T2 construct: expressed in transfected cells

[1] = target: T3, human δ-opioid receptor (DOR) (Homo sapiens, UniProt P41143); experiment: competitive radioligand binding assay, DOR; conditions: CHO cell membranes; mean ± SEM (n ≥ 3)
T3 construct: expressed in transfected cells; host or cells: CHO cells (provided by Dr. Selley, Virginia Commonwealth University)

O=C(N[C@H]1CC[C@@]2(O)[C@H]3Cc4ccc(O)c5c4[C@@]2(CCN3CC2CC2)[C@H]1O5)c1cccc2cc[nH]c12 [NAN, 17-cyclopropylmethyl-3,14β-dihydroxy-4,5α-epoxy-6α-(indole-7-carboxamido)morphinan]
Ki (KOR): 1.69 ± 0.35 nM | MOR [35S]-GTPγS binding % Emax of DAMGO (MOR): 19.11 ±3.31% | Ki [1]: 13.7 ± 1.39 nM
